Laboratory results: patent US7816522B2, “Triazolone derivatives” (Eisai Co., Ltd., priority 2006, dated 2010)

Target: T1, human clotting factor VIIa (Homo sapiens, UniProt P08709)
T1 construct: a human clotting factor VIIa (hereinafter, “Factor VIIa”) purified sample; purchased Enzyme Research Laboratories HFVIIa
Assay: Inhibitory activity against clotting factor VIIa (chromogenic substrate Spectrozyme FVIIa, TF/Factor VIIa enzyme solution)
Assay type: biochemical
Conditions: human Factor VIIa 5 nmol/L with human TF 10 nmol/L, room temperature 40 minutes, 405 nm
Procedure, shortened: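 Human Factor VIIa (5 nmol/L) with human TF (10 nmol/L) in Tris-BSA buffer pH 7.4 containing 15 mmol/L CaCl2 and cephalin, with Spectrozyme FVIIa substrate. Reaction 40 min at room temperature; 4-nitroanilide read at 405 nm. IC50 by non-linear regression over 100 μmol/L–0.1 nmol/L.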

T1 sequence (P08709 213-466 limits assumed): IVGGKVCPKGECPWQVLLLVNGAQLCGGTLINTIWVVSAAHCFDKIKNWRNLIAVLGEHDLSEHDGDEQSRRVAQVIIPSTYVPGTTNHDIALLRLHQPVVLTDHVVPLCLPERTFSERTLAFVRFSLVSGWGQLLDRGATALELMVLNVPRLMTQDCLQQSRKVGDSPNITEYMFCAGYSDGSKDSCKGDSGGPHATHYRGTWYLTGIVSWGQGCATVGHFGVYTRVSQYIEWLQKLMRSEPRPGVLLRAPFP
T1 sequence (P08709 61-212 limits assumed): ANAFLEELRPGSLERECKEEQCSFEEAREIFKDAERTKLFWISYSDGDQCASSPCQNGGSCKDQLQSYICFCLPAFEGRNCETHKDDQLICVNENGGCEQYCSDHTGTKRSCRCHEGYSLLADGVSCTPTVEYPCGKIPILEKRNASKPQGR
T1 sequence (P13726 33-295 partner): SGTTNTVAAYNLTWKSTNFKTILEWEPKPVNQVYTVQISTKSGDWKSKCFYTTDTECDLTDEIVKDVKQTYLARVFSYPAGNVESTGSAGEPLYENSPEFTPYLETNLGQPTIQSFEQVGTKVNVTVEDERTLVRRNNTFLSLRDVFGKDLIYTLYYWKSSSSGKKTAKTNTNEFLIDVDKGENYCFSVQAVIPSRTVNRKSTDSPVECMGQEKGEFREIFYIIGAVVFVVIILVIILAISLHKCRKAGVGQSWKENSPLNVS

Compound	IC50 [nM]
COc1cc(C(Nc2ccc(C(=N)N)cc2)c2nn(-c3ncccn3)c(=O)[nH]2)cc2c1OCCCO2 (racemic) [Example 156, (R) and (S)-4-{[(9-methoxy-3,4-dihydro-2H-benzo[b][1,4]dioxepin-7-yl)-(5-oxo-1-pyrimidin-2-yl-4,5-dihydro-1H-[1,2,4]triazol-3-yl)methyl]amino}benzamidine acetate]	5.2
COc1cc(OCCCO)cc(C(Nc2ccc(C(=N)N)cc2)c2nn(-c3ncccn3)c(=O)[nH]2)c1 (racemic) [Example 158, 4-({[3-(3-hydroxypropoxy)-5-methoxyphenyl]-(5-oxo-1-pyrimidin-2-yl-4,5-dihydro-1H-[1,2,4]triazol-3-yl)methyl}amino)benzamidine]	5.1
COc1cc(C(Nc2ccc(C(=N)N)cc2)c2nn(-c3ncccn3)c(=O)[nH]2)cc(OCCO)c1OC (racemic) [Example 159, 4-({(R) and (S)-[3-(2-hydroxyethoxy)-4,5-dimethoxyphenyl]-(5-oxo-1-pyrimidin-2-yl-4,5-dihydro-1H-[1,2,4]triazol-3-yl)methyl}amino)benzamidine acetate]	11.7
CCOc1cc(C(Nc2ccc(C(=N)N)cc2)c2nn(-c3ncccn3)c(=O)[nH]2)cnc1OC (racemic) [Example 160, 4-{[(R) and (S)-(5-ethoxy-6-methoxypyridin-3-yl)-(5-oxo-1-pyrimidin-2-yl-4,5-dihydro-1H-[1,2,4]triazol-3-yl)methyl]amino}benzamidine acetate]	9.4
COc1cc(C(Nc2ccc(C(=N)N)cc2)c2nn(-c3ncccn3)c(=O)[nH]2)c(F)c2c1OCC2 (racemic) [Example 161, (R) and (S)-4-{[(4-fluoro-7-methoxy-2,3-dihydrobenzofuran-5-yl)-(5-oxo-1-pyrimidin-2-yl-4,5-dihydro-1H-[1,2,4]triazol-3-yl)methyl]-amino}benzamidine acetate]	9
COc1cc(F)c(C(Nc2ccc(C(=N)N)cc2)c2nn(-c3ncsc3C(=O)O)c(=O)[nH]2)cc1OC (racemic) [Example 162, (R) and (S)-4-{3-[(4-carbamimidoylphenylamino)-(2-fluoro-4,5-dimethoxyphenyl)methyl]-5-oxo-4,5-dihydro[1,2,4]triazol-1-yl}thiazole-5-carboxylic acid]	16.5
COc1cc(OCCCO)c(F)c(C(Nc2ccc(C(=N)N)cc2)c2nn(-c3ncsc3C(=O)O)c(=O)[nH]2)c1 (racemic) [Example 163, (R) and (S)-4-(3-{(4-carbamimidoylphenylamino)-[2-fluoro-3-(3-hydroxypropoxy)-5-methoxyphenyl]methyl}-5-oxo-4,5-dihydro-[1,2,4]triazol-1-yl)thiazole-5-carboxylic acid]	10.5
COc1cc(C(Nc2ccc(C(=N)N)cc2)c2nn(-c3ncsc3C(N)=O)c(=O)[nH]2)c(F)c2c1OCOC2 (racemic) [Example 164, (R) and (S)-4-{3-[(4-carbamimidoylphenylamino)-(5-fluoro-8-methoxy-4H-benzo[1,3]dioxin-6-yl)methyl]-5-oxo-4,5-dihydro-[1,2,4]triazol-1-yl}thiazole-5-carboxylic acid amide]	24.5
COc1cc(C(Nc2ccc(C(=N)N)cc2)c2nn(-c3ncsc3C(=O)O)c(=O)[nH]2)c(F)c2c1OCOC2 (racemic) [Example 165, (R) and (S)-4-{3-[(4-carbamimidoylphenylamino)-(5-fluoro-8-methoxy-4H-benzo[1,3]dioxin-6-yl)methyl]-5-oxo-4,5-dihydro-[1,2,4]triazol-1-yl}thiazole-5-carboxylic acid]	25.8
COc1cc(C(Nc2ccc(C(=N)N)cc2)c2nn(-c3ncsc3C(=O)O)c(=O)[nH]2)cc2c1OCOC2 (racemic) [Example 166, (R) and (S)-4-{3-[(4-carbamimidoylphenylamino)-(8-methoxy-4H-benzo[1,3]dioxin-6-yl)methyl]-5-oxo-4,5-dihydro-[1,2,4]triazol-1-yl}thiazole-5-carboxylic acid]	18.7
COc1cc(OCCO)c(F)c(C(Nc2ccc(C(=N)N)cc2)c2nn(-c3ncsc3C(=O)O)c(=O)[nH]2)c1 (racemic) [Example 167, (R) and (S)-4-(3-{(4-carbamimidoylphenylamino)-[2-fluoro-3-(2-hydroxyethoxy)-5-methoxyphenyl]methyl}-5-oxo-4,5-dihydro[1,2,4]triazol-1-yl)thiazole-5-carboxylic acid]	11.1
COc1cc(C(Nc2ccc(C(=N)N)cc2)c2nn(-c3ccsc3C(=O)O)c(=O)[nH]2)c(F)c2c1OCCO2 (racemic) [Example 168, (R) and (S)-3-{3-[(4-carbamimidoylphenylamino)-(5-fluoro-8-methoxy-2,3-dihydrobenzo[1,4]dioxin-6-yl)methyl]-5-oxo-4,5-dihydro-[1,2,4]triazol-1-yl}thiophene-2-carboxylic acid]	2.8
COc1cc(C(Nc2ccc(C(=N)N)cc2)c2nn(-c3ccsc3C(=O)O)c(=O)[nH]2)cnc1OC (racemic) [Example 169, 3-{3-[(R) and (S)-(4-carbamimidoylphenylamino)-(5,6-dimethoxypyridin-3-yl)methyl]-5-oxo-4,5-dihydro-[1,2,4]triazol-1-yl}thiophene-2-carboxylic acid acetate]	2.8
COc1cnc(C(Nc2ccc(C(=N)N)cc2)c2nn(-c3ccsc3C(=O)O)c(=O)[nH]2)cc1OC (racemic) [Example 170, 3-{3-[(R) and (S)-(4-carbamimidoylphenylamino)-(4,5-dimethoxypyridin-2-yl)methyl]-5-oxo-4,5-dihydro-[1,2,4]triazol-1-yl}thiophene-2-carboxylic acid]	8
COc1cc(F)c(C(Nc2ccc(C(=N)N)cc2)c2nn(-c3ccsc3C(=O)O)c(=O)[nH]2)cc1OC (racemic) [Example 171, (R) and (S)-3-{3-[(4-carbamimidoylphenylamino)-(2-fluoro-4,5-dimethoxyphenyl)methyl]-5-oxo-4,5-dihydro[1,2,4]triazol-1-yl}thiophene-2-carboxylic acid]	3.3
COc1cc(C(Nc2ccc(C(=N)N)c(F)c2)c2nn(-c3ccccc3C(=O)O)c(=O)[nH]2)cc(C)n1 (racemic) [Example 173, 2-{3-[(R) and (S)-(4-carbamimidoyl-3-fluorophenylamino)-(2-methoxy-6-methylpyridin-4-yl)methyl]-5-oxo-4,5-dihydro-[1,2,4]triazol-1-yl}benzoic acid]	14.1
COc1cc(OCCF)c(F)c(C(Nc2ccc(C(=N)N)cc2)c2nn(-c3cccc(N)n3)c(=O)[nH]2)c1 (racemic) [Example 174, (R) and (S)-4-({[1-(6-aminopyridin-2-yl)-5-oxo-4,5-dihydro-1H-[1,2,4]triazol-3-yl]-[2-fluoro-3-(2-fluoroethoxy)-5-methoxyphenyl]methyl}amino)benzamidine acetate]	1.8
COc1cc(C(Nc2ccc(C(=N)N)cc2)c2nn(-c3ncccc3C(=O)O)c(=O)[nH]2)c(F)c2c1OCCCO2 (racemic) [Example 176, (R) and (S)-2-{3-[(4-carbamimidoylphenylamino)-(6-fluoro-9-methoxy-3,4-dihydro-2H-benzo[b][1,4]dioxepin-7-yl)methyl]-5-oxo-4,5-dihydro-[1,2,4]triazol-1-yl}nicotinic acid]	6.1
